Calls of active or inactive are those of the source.
What was measured:
H9c2 = assay: cells; assay type: functional, cell-based; details: Rattus norvegicus, H9c2, Myocardium
[1] = HEp-2 cell cytotoxicity, dose response, cytotoxicity control for RSV inhibitor project, HTS (AID 2410); assay type: functional; details: human respiratory syncytial virus
[2] = molecular target: Glyceraldehyde-3-phosphate dehydrogenase (Homo sapiens, UniProt P04406)
[3] = molecular target: Induced myeloid leukemia cell differentiation protein Mcl-1 (Homo sapiens, UniProt Q07820); assay type: functional
Large T antigen = Large T antigen (Simian virus 40, UniProt P03070); assay type: functional, Betapolyomavirus macacae;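 note: Confirmatory-stage PubChem screen for compounds that inhibit SV40 T antigen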
[4] = molecular target: T1, Rac GTPase-activating protein 1 (Homo sapiens, UniProt Q9H0H5); assay: MgcRacGAP GTPase-activating activity inhibitors, confirmation, biochemical, ADP Hunter fluorescence, primary and confirmatory (AID 624330); assay type: functional
T1 sequence (Q9H0H5 whole entry): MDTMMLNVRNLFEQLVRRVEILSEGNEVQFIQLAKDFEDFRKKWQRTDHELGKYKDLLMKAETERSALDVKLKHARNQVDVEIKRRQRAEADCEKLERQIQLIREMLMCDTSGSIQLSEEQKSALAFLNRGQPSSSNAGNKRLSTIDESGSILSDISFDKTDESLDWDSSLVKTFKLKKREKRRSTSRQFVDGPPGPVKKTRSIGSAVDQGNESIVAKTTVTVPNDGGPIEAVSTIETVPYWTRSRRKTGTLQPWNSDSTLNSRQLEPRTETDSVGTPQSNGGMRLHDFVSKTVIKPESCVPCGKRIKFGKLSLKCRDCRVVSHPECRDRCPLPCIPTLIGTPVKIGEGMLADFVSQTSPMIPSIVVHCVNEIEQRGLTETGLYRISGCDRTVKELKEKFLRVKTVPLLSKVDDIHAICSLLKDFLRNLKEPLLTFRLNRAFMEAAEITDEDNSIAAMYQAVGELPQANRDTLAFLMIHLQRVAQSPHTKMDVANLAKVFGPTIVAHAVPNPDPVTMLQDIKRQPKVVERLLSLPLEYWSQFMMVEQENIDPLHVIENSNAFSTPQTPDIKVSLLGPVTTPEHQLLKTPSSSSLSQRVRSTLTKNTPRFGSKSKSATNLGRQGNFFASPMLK

[5] = molecular target: FAD-linked sulfhydryl oxidase ALR (Homo sapiens, UniProt P55789); assay: inhibitors of human ALR sulfhydryl oxidase, dose response, biochemical, H2O2 detection, luminescence, cherry-pick (AID 493248)
Leucine aminopeptidase = molecular target: T2, Leucine aminopeptidase (Plasmodium falciparum 3D7, UniProt Q8IL11); assay: P. falciparum M17LAP inhibitors, primary screen, biochemical, fluorogenic H-Leu-NHMec substrate, 1536-well (AID 1619); assay type: functional
T2 sequence (Q8IL11 whole entry): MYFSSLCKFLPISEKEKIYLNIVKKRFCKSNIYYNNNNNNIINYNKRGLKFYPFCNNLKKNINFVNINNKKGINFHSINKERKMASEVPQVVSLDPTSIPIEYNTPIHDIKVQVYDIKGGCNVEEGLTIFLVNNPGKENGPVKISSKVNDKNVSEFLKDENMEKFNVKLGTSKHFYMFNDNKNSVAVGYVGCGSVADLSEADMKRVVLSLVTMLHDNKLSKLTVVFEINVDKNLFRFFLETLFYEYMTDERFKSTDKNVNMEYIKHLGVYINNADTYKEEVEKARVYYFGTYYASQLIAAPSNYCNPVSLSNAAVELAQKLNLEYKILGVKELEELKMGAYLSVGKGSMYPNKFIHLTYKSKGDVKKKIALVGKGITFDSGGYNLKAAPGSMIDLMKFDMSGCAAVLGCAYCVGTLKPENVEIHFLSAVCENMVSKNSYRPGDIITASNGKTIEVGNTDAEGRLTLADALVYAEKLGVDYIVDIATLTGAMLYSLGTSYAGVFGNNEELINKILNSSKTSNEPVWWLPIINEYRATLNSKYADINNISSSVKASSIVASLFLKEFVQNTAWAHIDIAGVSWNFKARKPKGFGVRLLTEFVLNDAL

P388 = assay: cells; assay type: functional; details: Mus musculus
SN12K1 = assay: cells; assay type: functional; details: Homo sapiens
P388/ADR = assay: cells; assay type: functional; details: Mus musculus
[6] = molecular target: T3, Heat shock factor protein 1 (Mus musculus, UniProt P38532); assay: HSF1 potentiators in luciferase reporter cells, confirmation, cell-based, NIH3T3, luminescence, dose retest (AID 435004); assay type: functional;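 note: stress induced by proteasome inhibitor MG132 added 30 min after compound; luciferase reporter driven by HSF1 response element in NIH3T3 cells; actives raise luminescence as potentiators of the MG132 stress response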
T3 sequence (P38532 whole entry): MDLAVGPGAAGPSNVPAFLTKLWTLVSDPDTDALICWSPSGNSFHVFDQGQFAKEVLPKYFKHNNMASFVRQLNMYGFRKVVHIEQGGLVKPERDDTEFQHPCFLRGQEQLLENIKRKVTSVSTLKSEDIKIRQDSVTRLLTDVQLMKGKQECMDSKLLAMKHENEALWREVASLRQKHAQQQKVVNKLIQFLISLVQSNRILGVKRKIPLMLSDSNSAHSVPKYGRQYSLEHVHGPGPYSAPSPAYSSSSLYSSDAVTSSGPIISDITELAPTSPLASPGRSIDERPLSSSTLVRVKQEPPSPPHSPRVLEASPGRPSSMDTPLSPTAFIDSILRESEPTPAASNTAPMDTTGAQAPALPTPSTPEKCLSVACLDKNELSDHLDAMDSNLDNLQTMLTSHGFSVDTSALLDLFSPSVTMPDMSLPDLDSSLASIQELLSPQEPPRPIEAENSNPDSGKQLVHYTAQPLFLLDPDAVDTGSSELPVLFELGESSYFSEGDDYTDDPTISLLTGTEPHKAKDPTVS

[7] = P. falciparum 3D7-ScDHODH growth inhibitors, dose response, SYBR Green, dry powder samples (AID 1159570); assay type: functional, cell-based;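 note: parasite growth measured after 72 hours of compound exposure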
[8] = P. falciparum ATP4 D1247Y mutant growth inhibitors, dose response, NITD609-resistant line, SYBR Green, dry powder (AID 1159571); assay type: functional, cell-based;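 note: parasites synchronized at ring stage by sorbitol before testing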
[9] = P. falciparum Dd2 growth inhibitors, dose response, SYBR Green, dry powder samples (AID 1159566); assay type: functional, cell-based;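 note: potency for growth inhibition with lower SYBR green DNA signal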
[10] = P. falciparum Dd2 growth inhibitors, dose response, SYBR Green, cherry-picked samples (AID 1159567); assay type: functional, cell-based
Cytochrome P450 2D6 = Cytochrome P450 2D6 (Homo sapiens, UniProt P10635);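 note: CYP2D6 member of a cytochrome P450 panel assay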
[11] = molecular target: T4, Carboxy-terminal domain RNA polymerase II polypeptide A small phosphatase 1 (Homo sapiens, UniProt Q9GZU7); assay: inhibitors of CTDSP1, concentration-response testing, biochemical assay, absorbance-based, actives from ultra-high-throughput screening (AID 540297); assay type: functional
T4 sequence (Q9GZU7 whole entry): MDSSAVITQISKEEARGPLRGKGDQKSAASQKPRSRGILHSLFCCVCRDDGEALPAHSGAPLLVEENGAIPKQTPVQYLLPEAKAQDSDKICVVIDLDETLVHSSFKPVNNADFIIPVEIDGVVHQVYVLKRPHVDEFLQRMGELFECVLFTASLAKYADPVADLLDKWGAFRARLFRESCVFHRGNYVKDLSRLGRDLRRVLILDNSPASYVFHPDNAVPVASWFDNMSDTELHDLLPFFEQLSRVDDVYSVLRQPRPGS

Sequence of Large T antigen (P03070 whole entry): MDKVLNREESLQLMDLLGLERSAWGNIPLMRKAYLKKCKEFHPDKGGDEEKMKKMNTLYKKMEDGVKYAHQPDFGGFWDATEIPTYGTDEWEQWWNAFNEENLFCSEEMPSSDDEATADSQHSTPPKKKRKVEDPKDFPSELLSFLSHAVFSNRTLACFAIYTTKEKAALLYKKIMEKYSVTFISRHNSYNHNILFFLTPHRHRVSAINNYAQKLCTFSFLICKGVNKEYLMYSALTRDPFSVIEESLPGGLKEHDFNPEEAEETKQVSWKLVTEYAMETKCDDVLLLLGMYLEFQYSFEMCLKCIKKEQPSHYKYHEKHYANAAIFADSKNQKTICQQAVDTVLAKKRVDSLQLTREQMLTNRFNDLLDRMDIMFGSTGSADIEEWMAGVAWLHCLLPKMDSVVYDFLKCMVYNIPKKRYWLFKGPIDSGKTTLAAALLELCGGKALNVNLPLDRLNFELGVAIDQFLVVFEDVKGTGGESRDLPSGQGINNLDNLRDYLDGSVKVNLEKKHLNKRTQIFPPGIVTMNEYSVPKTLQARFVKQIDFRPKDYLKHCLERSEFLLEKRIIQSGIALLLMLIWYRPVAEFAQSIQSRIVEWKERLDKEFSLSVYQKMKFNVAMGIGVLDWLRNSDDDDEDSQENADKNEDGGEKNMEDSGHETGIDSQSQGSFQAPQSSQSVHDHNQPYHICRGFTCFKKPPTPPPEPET
Sequence of Glyceraldehyde-3-phosphate dehydrogenase (P04406 whole entry): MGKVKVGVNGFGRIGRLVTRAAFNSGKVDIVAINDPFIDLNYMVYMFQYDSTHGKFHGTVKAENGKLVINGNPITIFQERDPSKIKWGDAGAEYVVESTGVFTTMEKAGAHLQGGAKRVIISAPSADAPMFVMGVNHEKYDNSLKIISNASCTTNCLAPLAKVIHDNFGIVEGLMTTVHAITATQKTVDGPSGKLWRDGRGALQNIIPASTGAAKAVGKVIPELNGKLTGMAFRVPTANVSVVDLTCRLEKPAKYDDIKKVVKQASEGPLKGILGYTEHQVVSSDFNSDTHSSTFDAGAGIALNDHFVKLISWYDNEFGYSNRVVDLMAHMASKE
Sequence of Induced myeloid leukemia cell differentiation protein Mcl-1 (Q07820 whole entry): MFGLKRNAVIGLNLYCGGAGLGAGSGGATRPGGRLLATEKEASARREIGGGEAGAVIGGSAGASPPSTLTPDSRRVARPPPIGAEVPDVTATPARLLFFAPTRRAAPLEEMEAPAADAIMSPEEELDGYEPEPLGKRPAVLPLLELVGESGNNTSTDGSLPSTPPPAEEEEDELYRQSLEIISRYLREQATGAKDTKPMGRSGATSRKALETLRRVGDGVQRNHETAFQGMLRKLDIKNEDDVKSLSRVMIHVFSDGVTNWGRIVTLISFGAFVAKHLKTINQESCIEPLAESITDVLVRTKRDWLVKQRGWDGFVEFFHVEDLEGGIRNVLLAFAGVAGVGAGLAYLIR
Sequence of Cytochrome P450 2D6 (P10635 whole entry, the tested form may be a part): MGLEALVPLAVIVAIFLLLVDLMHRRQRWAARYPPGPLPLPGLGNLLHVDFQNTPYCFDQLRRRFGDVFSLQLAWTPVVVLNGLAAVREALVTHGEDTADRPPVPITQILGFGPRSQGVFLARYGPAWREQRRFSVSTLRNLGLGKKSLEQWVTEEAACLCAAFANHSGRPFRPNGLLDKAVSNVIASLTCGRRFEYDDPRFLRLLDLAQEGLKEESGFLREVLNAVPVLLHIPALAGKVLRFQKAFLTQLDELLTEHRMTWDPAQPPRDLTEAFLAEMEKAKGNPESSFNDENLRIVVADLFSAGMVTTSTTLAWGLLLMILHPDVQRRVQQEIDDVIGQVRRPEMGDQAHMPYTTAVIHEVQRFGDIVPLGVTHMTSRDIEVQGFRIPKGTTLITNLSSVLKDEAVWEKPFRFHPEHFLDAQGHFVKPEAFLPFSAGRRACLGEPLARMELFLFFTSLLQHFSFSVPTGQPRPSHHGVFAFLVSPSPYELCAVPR
Sequence of FAD-linked sulfhydryl oxidase ALR (P55789 whole entry): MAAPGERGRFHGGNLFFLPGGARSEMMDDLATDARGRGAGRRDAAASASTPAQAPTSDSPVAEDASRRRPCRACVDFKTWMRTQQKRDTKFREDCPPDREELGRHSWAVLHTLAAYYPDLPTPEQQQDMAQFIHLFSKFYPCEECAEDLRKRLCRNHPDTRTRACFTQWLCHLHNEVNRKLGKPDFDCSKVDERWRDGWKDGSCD

## c1cncc(-c2nc(NCC3COc4ccccc4O3)c3ccccc3n2)c1 (stereo unspecified)
H9c2
  IC50: > 79 µM (inactive)
[1]
  CC50: 10.2 µM (active)

## O=C(/C=C/c1ccc(Cl)c([N+](=O)[O-])c1)Nc1cccnc1
H9c2
  IC50: > 79 µM (inactive)

## COc1ccc(Cl)cc1NC(=O)CCS(=O)(=O)c1cc2c(cc1C)NC(=O)CO2
H9c2
  IC50: > 79 µM (inactive)

## Cc1ccc(N2C(=O)C(Cl)=C(N3CCN(c4ccccc4)CC3)C2=O)cc1
[2]
  IC50: > 50 µM (inconclusive)

## CCCCOC(=O)Nc1ccc(N(C)C)cc1
[3]
  IC50: 0.473 µM (not active)
Large T antigen
  IC50: 5.43 µM (active)

## O=C(CN1CCN(Cc2ccccc2)CC1)Nc1ccc([N+](=O)[O-])cc1C(=O)Nc1ccccc1F
H9c2
  IC50: > 79 µM (inactive)

## Cc1cc(NS(=O)(=O)c2ccc(Nc3nc(-c4ccc(O)cc4)cs3)cc2)no1
[4]
  IC50: 30.8 µM (active)
Large T antigen
  IC50: > 100 µM (active)
[5]
  AC50: 0.108 µM (active)

## CCOC(=O)COc1ncn(-c2ccccc2)n1
Leucine aminopeptidase
  IC50: 13.9 µM (active)

## COc1ccc(N2CCN(C3=C(Cl)C(=O)N(c4ccc(Cl)nc4)C3=O)CC2)cc1
[2]
  IC50: > 50 µM (inconclusive)

## O=C(Nc1ccc(C2=NCCN2)cc1)c1cncc(C(=O)Nc2ccc(C3=NCCN3)cc2)c1
P388
  GI50: 24.2 µM (inactive)
SN12K1
  GI50: > 100 µM (inactive)
P388/ADR
  GI50: > 100 µM (inactive)

## Cc1cc(C)n2nc(C(=O)N/N=C/c3c4ccccc4cc4ccccc34)nc2n1
H9c2
  IC50: > 79 µM (inactive)
[6]
  EC50: > 260 µM (inactive)

## CCC1CN2CCC1CC2 (stereo unspecified)
P388
  GI50: 80.4 µM (inactive)
SN12K1
  GI50: > 100 µM (inactive)
P388/ADR
  GI50: > 100 µM (inactive)

## COc1ccc(C(=O)O/N=C(/c2ccccc2)c2ccncc2)cc1OC
H9c2
  IC50: 6.72 µM (active)

## C[C@H]1[C@@H]2C[C@@H]3O[C@@]34[C@H]3CCC5Cc6nc7c(nc6C[C@@]5(C)[C@]3(O)CC(=O)[C@@]24CO[C@]12OC(C)(C)C[C@@H]2O)CC1CC[C@@H]2C3=C[C@H]4O[C@@]5(OC(C)(CO)C[C@@H]5O)[C@H](C)[C@@]4(O)[C@]3(C)[C@@H](O)CC2[C@]1(C)C7 (stereo partly specified)
P388
  GI50: 0.0017 µM (active)
SN12K1
  GI50: 0.00221 µM (active)
P388/ADR
  GI50: 0.0718 µM (active)

## S=c1[nH]c(-c2ccccc2)nn1-c1ccccc1
Leucine aminopeptidase
  IC50: 11.5 µM (active)

## O=C(O)c1cccc(Cn2c(Cl)c(/C=N/NC(=O)c3ccccc3Cl)sc2=O)c1
Leucine aminopeptidase
  IC50: 34.1 µM (active)

## COc1ccccc1S(=O)(=O)N(C)C[C@H]1OCc2ccccc2-c2c(n(C)c3ccccc23)C(=O)N([C@@H](C)CO)C[C@@H]1C
[7]
  AC50: 2.03 µM (active)
[8]
  AC50: 1.02 µM (active)
[9]
  AC50: 1.09 µM (active)
[10]
  AC50: 2.1 µM (active)

## CCCC#Cc1ccc2c(c1)O[C@H](CN(C)C(=O)Nc1ccc(OC)cc1)[C@H](C)CN([C@H](C)CO)S2(=O)=O
[7]
  AC50: 1.37 µM (active)
[8]
  AC50: 1.45 µM (active)
[9]
  AC50: 1.82 µM (active)
[10]
  AC50: 1.94 µM (active)

## CC(C)NC(=O)N1[C@@H](CO)[C@@H](c2ccccc2)C12CN(Cc1ccc(F)cc1)C2
[7]
  AC50: 4 µM (active)
[8]
  AC50: 2.17 µM (active)
[9]
  AC50: 1.95 µM (active)
[10]
  AC50: 3.25 µM (active)

## O=C(C1CCCC1)N1CC(=O)N2[C@H](CO)[C@H](c3ccc(-c4cccnc4)cc3)[C@H]2C1
[7]
  AC50: 2.33 µM (active)
[8]
  AC50: 1.85 µM (active)
[9]
  AC50: 1.11 µM (active)
[10]
  AC50: 1.47 µM (active)

## C[C@@H]1CN([C@@H](C)CO)C(=O)c2cccc(NC(=O)c3nc4ccccc4s3)c2O[C@H]1CN(C)C(=O)Nc1ccc2c(c1)OCO2
[7]
  AC50: 0.985 µM (active)
[8]
  AC50: 1.18 µM (active)
[9]
  AC50: 1.37 µM (active)
[10]
  AC50: 2.35 µM (active)

## COC(=O)[C@@H]1c2cc3c(c(O)c2[C@@H](OC)C[C@@]1(C)O)C(=O)c1c(O)cc2c(c1C3=O)OC1O[C@@]2(C)[C@H](O)[C@@H](N(C)C)[C@@H]1O
P388
  GI50: 0.092 µM (active)
SN12K1
  GI50: 0.352 µM (active)
P388/ADR
  GI50: 1.29 µM (inactive)

## CCOc1ccc(Cl)cc1S(=O)(=O)Nc1cccnc1
[2]
  IC50: > 100 µM (not active)

## O=C(O)C1=CC(=C(c2ccc(O)c(C(=O)O)c2)c2ccc(O)c(C(=O)O)c2)C=CC1=O [AURINTRICARBOXYLIC ACID]
Cytochrome P450 2D6
  AC50: 39.8 µM (inconclusive)
Large T antigen
  IC50: 1.93 µM (active)

## C[C@H](CCC(=O)O)[C@H]1CC[C@H]2[C@@H]3CC[C@@H]4C[C@H](O)CC[C@]4(C)[C@H]3CC[C@]12C [LITHOCHOLIC ACID]
[11]
  IC50: 4.82 µM (active)
Large T antigen
  IC50: 26.1 µM (active)

## Cn1c2ccccc2c(=O)c2c(O)cc3c(c21)C=CC(C)(C)O3 [NORACRONYCINE]
P388
  GI50: > 25 µM (inactive)
SN12K1
  GI50: > 25 µM (inactive)
P388/ADR
  GI50: > 25 µM (inactive)

## O=C(O)CCCCCCCCC(=O)O [SEBACIC ACID]
P388
  GI50: 316 µM (inactive)
SN12K1
  GI50: > 500 µM (inactive)
P388/ADR
  GI50: > 500 µM (inactive)

From ChEMBL document CHEMBL1201862, “PubChem BioAssay data set” (2004)
